Assay results taken from US6608082B1, “Treatment of erectile dysfunction using isoquinoline compound melanocortin receptor ligands” (Lion Bioscience AG, priority 1998, dated 2003).

Target: T1, MCR-1 (Homo sapiens, UniProt Q01726)
T1 construct: expressed in transfected cells; host or cells: HEK 293
Assay: Melanocortin receptor binding assay, competition with 125I-HP 467, HEK 293 cells expressing hMCR-1
Conditions: 10 μM isoquinoline compound; for % Disp. of 125I-HP 467 (first of duplicate): HEK 293 cells expressing MCR-1, duplicate 1; for % Disp. of 125I-HP 467 (second of duplicate): HEK 293 cells expressing MCR-1, duplicate 2
Summary of the method: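 Test compounds compete on intact HEK 293 cells carrying hMCR-1 (2×10^4 per tube) or hMCR-4 (4×10^3 per tube), suspended in PBS, 10% calf serum, 1 mM CaCl2.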

T1 sequence (Q01726 whole entry): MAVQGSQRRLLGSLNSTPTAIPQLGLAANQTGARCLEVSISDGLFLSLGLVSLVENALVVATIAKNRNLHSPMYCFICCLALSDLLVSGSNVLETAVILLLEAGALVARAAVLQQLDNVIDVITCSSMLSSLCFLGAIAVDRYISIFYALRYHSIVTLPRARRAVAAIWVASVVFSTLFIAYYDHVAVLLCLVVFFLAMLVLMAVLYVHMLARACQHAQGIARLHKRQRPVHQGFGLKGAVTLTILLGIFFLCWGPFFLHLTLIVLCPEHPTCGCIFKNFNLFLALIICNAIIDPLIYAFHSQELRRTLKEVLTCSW

CNC(CN)CCCCN1Cc2ccccc2C(CNC2CCCCC2)C1c1ccccc1 (centres unmarked) [TRG 2405-181]
% Disp. of 125I-HP 467 (first of duplicate): 57.3%
% Disp. of 125I-HP 467 (second of duplicate): 64.4%

CNC(CN)CCCCN1Cc2ccccc2C(CNC2CCCCC2)C1c1cccn1C (centres unmarked) [TRG 2405-184]
% Disp. of 125I-HP 467 (first of duplicate): 55.8%
% Disp. of 125I-HP 467 (second of duplicate): 46%

CN[C@H](CN)CCCCN1Cc2ccccc2C(CNC2CCCCC2)C1c1cccc2ccccc12 (some centres unmarked) [TRG 2405-185]
% Disp. of 125I-HP 467 (first of duplicate): 68.1%
% Disp. of 125I-HP 467 (second of duplicate): 60.4%

CNC(CN)CCCCN1Cc2ccccc2C(CNC2CCCCC2)C1c1ccc(F)c(F)c1F (centres unmarked) [TRG 2405-186]
% Disp. of 125I-HP 467 (first of duplicate): 62.7%
% Disp. of 125I-HP 467 (second of duplicate): 52.7%

CNC(CN)CCCCN1Cc2ccccc2C(CNC2CCCCC2)C1c1cccc2c1OCO2 (centres unmarked) [TRG 2405-188]
% Disp. of 125I-HP 467 (first of duplicate): 66.9%
% Disp. of 125I-HP 467 (second of duplicate): 60.1%

CNC(CN)CCCCN1Cc2ccccc2C(CNC2CCCCC2)C1c1cccc(F)c1F (centres unmarked) [TRG 2405-189]
% Disp. of 125I-HP 467 (first of duplicate): 45%
% Disp. of 125I-HP 467 (second of duplicate): 54.8%

CNC(CN)CCCCN1Cc2ccccc2C(CNC2CCCCC2)C1c1c(F)cccc1F (centres unmarked) [TRG 2405-191]
% Disp. of 125I-HP 467 (first of duplicate): 41.2%
% Disp. of 125I-HP 467 (second of duplicate): 47.3%

CNC(CN)CCCCN1Cc2ccccc2C(CNC2CCCCC2)C1c1ccccc1Br (centres unmarked) [TRG 2405-192]
% Disp. of 125I-HP 467 (first of duplicate): 73.8%
% Disp. of 125I-HP 467 (second of duplicate): 50.9%

CNC(CN)CCCCN1Cc2ccccc2C(CNC2CCCCC2)C1c1c(F)cccc1Cl (centres unmarked) [TRG 2405-194]
% Disp. of 125I-HP 467 (first of duplicate): 50.7%
% Disp. of 125I-HP 467 (second of duplicate): 51.4%

CNC(CN)CCCCN1Cc2ccccc2C(CNC2CCCCC2)C1c1ccccc1CN (centres unmarked) [TRG 2405-195]
% Disp. of 125I-HP 467 (first of duplicate): 44.7%
% Disp. of 125I-HP 467 (second of duplicate): 35.7%

CNC(CN)CCCCN1Cc2ccccc2C(CNC2CCCCC2)C1c1ccccc1F (centres unmarked) [TRG 2405-196]
% Disp. of 125I-HP 467 (first of duplicate): 69.1%
% Disp. of 125I-HP 467 (second of duplicate): 64.6%

CNC(CN)CCCCN1Cc2ccccc2C(CNC2CCCCC2)C1c1ccco1 (centres unmarked) [TRG 2405-197]
% Disp. of 125I-HP 467 (first of duplicate): 41.9%
% Disp. of 125I-HP 467 (second of duplicate): 41.3%

CNC(CN)CCCCN1Cc2ccccc2C(CNC2CCCCC2)C1c1ncc[nH]1 (centres unmarked) [TRG 2405-198]
% Disp. of 125I-HP 467 (first of duplicate): 65.4%
% Disp. of 125I-HP 467 (second of duplicate): 26.4%

CNC(CN)CCCCN1Cc2ccccc2C(CNC2CCCCC2)C1c1ccccc1OC (centres unmarked) [TRG 2405-199]
% Disp. of 125I-HP 467 (first of duplicate): 71.5%
% Disp. of 125I-HP 467 (second of duplicate): 71.4%

CNC(CN)CCCCN1Cc2ccccc2C(CNC2CCCCC2)C1c1ccc2ccccc2c1 (centres unmarked) [TRG 2405-200]
% Disp. of 125I-HP 467 (first of duplicate): 83.6%
% Disp. of 125I-HP 467 (second of duplicate): 81%

CNC(CN)CCCCN1Cc2ccccc2C(CNC2CCCCC2)C1c1ccccn1 (centres unmarked) [TRG 2405-201]
% Disp. of 125I-HP 467 (first of duplicate): 61.1%
% Disp. of 125I-HP 467 (second of duplicate): 43.4%

CNC(CN)CCCCN1Cc2ccccc2C(CNC2CCCCC2)C1c1ccc2ccccc2n1 (centres unmarked) [TRG 2405-202]
% Disp. of 125I-HP 467 (first of duplicate): 63%
% Disp. of 125I-HP 467 (second of duplicate): 53.2%

CNC(CN)CCCCN1Cc2ccccc2C(CNC2CCCCC2)C1c1cccs1 (centres unmarked) [TRG 2405-203]
% Disp. of 125I-HP 467 (first of duplicate): 58.1%
% Disp. of 125I-HP 467 (second of duplicate): 49%

CNC(CN)CCCCN1Cc2ccccc2C(CNC2CCCCC2)C1c1ccc(Cl)c(Cl)c1 (centres unmarked) [TRG 2405-206]
% Disp. of 125I-HP 467 (first of duplicate): 75%
% Disp. of 125I-HP 467 (second of duplicate): 69%
